According to ChEMBL document CHEMBL4020788, “Synthesis, SAR and molecular docking studies of benzo[d]thiazole-hydrazones as potential antibacterial and antifungal agents” (2017):
Calls of active or inactive are those of the source. The calls are words filed in the database; no cut-off is given here.

Assays:
Type in all cases: functional
Aspergillus niger [1] = experiment: Antifungal activity against Aspergillus niger at 25 ug/ml after 48 hrs by agar well diffusion method
Escherichia coli [2] = experiment: Antibacterial activity against Escherichia coli at 25 ug/ml after 24 hrs by agar well diffusion method
Staphylococcus aureus [3] = experiment: Antibacterial activity against methicillin resistant Staphylococcus aureus MRSA090 at 25 ug/ml after 24 hrs by agar well diffusion method
Bacillus subtilis [4] = experiment: Antibacterial activity against Bacillus subtilis at 50 ug/ml after 24 hrs by agar well diffusion method
Fusarium oxysporum [5] = experiment: Antifungal activity against Fusarium oxysporum at 50 ug/ml after 48 hrs by agar well diffusion method
Aspergillus niger [6] = experiment: Antifungal activity against Aspergillus niger at 100 ug/ml after 48 hrs by agar well diffusion method
Fusarium verticillioides [7] = experiment: Antifungal activity against Fusarium moniliforme at 50 ug/ml after 48 hrs by agar well diffusion method
Klebsiella pneumoniae [8] = experiment: Antibacterial activity against Klebsiella pneumoniae at 25 ug/ml after 24 hrs by agar well diffusion method
Klebsiella pneumoniae [9] = experiment: Antibacterial activity against Klebsiella pneumoniae at 50 ug/ml after 24 hrs by agar well diffusion method
Staphylococcus aureus [10] = experiment: Antibacterial activity against methicillin resistant Staphylococcus aureus MRSA090 at 50 ug/ml after 24 hrs by agar well diffusion method
Escherichia coli [11] = experiment: Antibacterial activity against Escherichia coli at 75 ug/ml after 24 hrs by agar well diffusion method
Bacillus subtilis [12] = experiment: Antibacterial activity against Bacillus subtilis at 75 ug/ml after 24 hrs by agar well diffusion method
Fusarium oxysporum [13] = experiment: Antifungal activity against Fusarium oxysporum at 25 ug/ml after 48 hrs by agar well diffusion method
Aspergillus niger [14] = experiment: Antifungal activity against Aspergillus niger at 75 ug/ml after 48 hrs by agar well diffusion method
Fusarium verticillioides [15] = experiment: Antifungal activity against Fusarium moniliforme at 25 ug/ml after 48 hrs by agar well diffusion method
Staphylococcus aureus [16] = experiment: Antibacterial activity against Staphylococcus aureus at 50 ug/ml after 24 hrs by agar well diffusion method
Aspergillus niger [17] = experiment: Antifungal activity against Aspergillus niger at 50 ug/ml after 48 hrs by agar well diffusion method
Fusarium oxysporum [18] = experiment: Antifungal activity against Fusarium oxysporum at 75 ug/ml after 48 hrs by agar well diffusion method
Escherichia coli [19] = experiment: Antibacterial activity against Escherichia coli at 100 ug/ml after 24 hrs by agar well diffusion method
Bacillus subtilis [20] = experiment: Antibacterial activity against Bacillus subtilis at 100 ug/ml after 24 hrs by agar well diffusion method
Fusarium verticillioides [21] = experiment: Antifungal activity against Fusarium moniliforme at 75 ug/ml after 48 hrs by agar well diffusion method
Klebsiella pneumoniae [22] = experiment: Antibacterial activity against Klebsiella pneumoniae at 100 ug/ml after 24 hrs by agar well diffusion method
Klebsiella pneumoniae [23] = experiment: Antibacterial activity against Klebsiella pneumoniae at 75 ug/ml after 24 hrs by agar well diffusion method
Staphylococcus aureus [24] = experiment: Antibacterial activity against Staphylococcus aureus at 75 ug/ml after 24 hrs by agar well diffusion method
Fusarium oxysporum [25] = experiment: Antifungal activity against Fusarium oxysporum at 100 ug/ml after 48 hrs by agar well diffusion method
Staphylococcus aureus [26] = experiment: Antibacterial activity against methicillin resistant Staphylococcus aureus MRSA090 at 100 ug/ml after 24 hrs by agar well diffusion method
Staphylococcus aureus [27] = experiment: Antibacterial activity against Staphylococcus aureus at 25 ug/ml after 24 hrs by agar well diffusion method
Bacillus subtilis [28] = experiment: Antibacterial activity against Bacillus subtilis at 25 ug/ml after 24 hrs by agar well diffusion method
Staphylococcus aureus [29] = experiment: Antibacterial activity against Staphylococcus aureus at 100 ug/ml after 24 hrs by agar well diffusion method
Escherichia coli [30] = experiment: Antibacterial activity against Escherichia coli at 50 ug/ml after 24 hrs by agar well diffusion method
Fusarium verticillioides [31] = experiment: Antifungal activity against Fusarium moniliforme at 100 ug/ml after 48 hrs by agar well diffusion method
Staphylococcus aureus [32] = experiment: Antibacterial activity against methicillin resistant Staphylococcus aureus MRSA090 at 75 ug/ml after 24 hrs by agar well diffusion method

CC/C=N/Nc1nc2cccc(C)c2s1
diameter of the inhibition zone (DIZ) (Aspergillus niger [1]): inactive | diameter of the inhibition zone (DIZ) (Escherichia coli [2]): inactive | diameter of the inhibition zone (DIZ) (Staphylococcus aureus [3]): inactive | diameter of the inhibition zone (DIZ) (Bacillus subtilis [4]): inactive | diameter of the inhibition zone (DIZ) (Fusarium oxysporum [5]): inactive | diameter of the inhibition zone (DIZ) (Aspergillus niger [6]): inactive | diameter of the inhibition zone (DIZ) (Fusarium verticillioides [7]): inactive | diameter of the inhibition zone (DIZ) (Klebsiella pneumoniae [8]): inactive | diameter of the inhibition zone (DIZ) (Klebsiella pneumoniae [9]): inactive | diameter of the inhibition zone (DIZ) (Staphylococcus aureus [10]): inactive | diameter of the inhibition zone (DIZ) (Escherichia coli [11]): inactive | diameter of the inhibition zone (DIZ) (Bacillus subtilis [12]): inactive | diameter of the inhibition zone (DIZ) (Fusarium oxysporum [13]): inactive | diameter of the inhibition zone (DIZ) (Aspergillus niger [14]): inactive | diameter of the inhibition zone (DIZ) (Fusarium verticillioides [15]): inactive | diameter of the inhibition zone (DIZ) (Staphylococcus aureus [16]): inactive | diameter of the inhibition zone (DIZ) (Aspergillus niger [17]): inactive | diameter of the inhibition zone (DIZ) (Fusarium oxysporum [18]): inactive | diameter of the inhibition zone (DIZ) (Escherichia coli [19]): inactive | diameter of the inhibition zone (DIZ) (Bacillus subtilis [20]): inactive | diameter of the inhibition zone (DIZ) (Fusarium verticillioides [21]): inactive | diameter of the inhibition zone (DIZ) (Klebsiella pneumoniae [22]): inactive | diameter of the inhibition zone (DIZ) (Klebsiella pneumoniae [23]): inactive | diameter of the inhibition zone (DIZ) (Staphylococcus aureus [24]): inactive | diameter of the inhibition zone (DIZ) (Fusarium oxysporum [25]): inactive | diameter of the inhibition zone (DIZ) (Staphylococcus aureus [26]): inactive | diameter of the inhibition zone (DIZ) (Staphylococcus aureus [27]): inactive | diameter of the inhibition zone (DIZ) (Bacillus subtilis [28]): inactive | diameter of the inhibition zone (DIZ) (Staphylococcus aureus [29]): inactive | diameter of the inhibition zone (DIZ) (Escherichia coli [30]): inactive | diameter of the inhibition zone (DIZ) (Fusarium verticillioides [31]): inactive | diameter of the inhibition zone (DIZ) (Staphylococcus aureus [32]): inactive

CCCCCC/C=N/Nc1nc2cccc(C)c2s1
diameter of the inhibition zone (DIZ) (Aspergillus niger [1]): inactive | diameter of the inhibition zone (DIZ) (Escherichia coli [2]): inactive | diameter of the inhibition zone (DIZ) (Staphylococcus aureus [3]): inactive | diameter of the inhibition zone (DIZ) (Bacillus subtilis [4]): inactive | diameter of the inhibition zone (DIZ) (Fusarium oxysporum [5]): inactive | diameter of the inhibition zone (DIZ) (Aspergillus niger [6]): inactive | diameter of the inhibition zone (DIZ) (Fusarium verticillioides [7]): inactive | diameter of the inhibition zone (DIZ) (Klebsiella pneumoniae [8]): inactive | diameter of the inhibition zone (DIZ) (Klebsiella pneumoniae [9]): inactive | diameter of the inhibition zone (DIZ) (Staphylococcus aureus [10]): inactive | diameter of the inhibition zone (DIZ) (Escherichia coli [11]): inactive | diameter of the inhibition zone (DIZ) (Bacillus subtilis [12]): inactive | diameter of the inhibition zone (DIZ) (Fusarium oxysporum [13]): inactive | diameter of the inhibition zone (DIZ) (Aspergillus niger [14]): inactive | diameter of the inhibition zone (DIZ) (Fusarium verticillioides [15]): inactive | diameter of the inhibition zone (DIZ) (Staphylococcus aureus [16]): inactive | diameter of the inhibition zone (DIZ) (Aspergillus niger [17]): inactive | diameter of the inhibition zone (DIZ) (Fusarium oxysporum [18]): inactive | diameter of the inhibition zone (DIZ) (Escherichia coli [19]): inactive | diameter of the inhibition zone (DIZ) (Bacillus subtilis [20]): inactive | diameter of the inhibition zone (DIZ) (Fusarium verticillioides [21]): inactive | diameter of the inhibition zone (DIZ) (Klebsiella pneumoniae [22]): inactive | diameter of the inhibition zone (DIZ) (Klebsiella pneumoniae [23]): inactive | diameter of the inhibition zone (DIZ) (Staphylococcus aureus [24]): inactive | diameter of the inhibition zone (DIZ) (Fusarium oxysporum [25]): inactive | diameter of the inhibition zone (DIZ) (Staphylococcus aureus [26]): inactive | diameter of the inhibition zone (DIZ) (Staphylococcus aureus [27]): inactive | diameter of the inhibition zone (DIZ) (Bacillus subtilis [28]): inactive | diameter of the inhibition zone (DIZ) (Staphylococcus aureus [29]): inactive | diameter of the inhibition zone (DIZ) (Escherichia coli [30]): inactive | diameter of the inhibition zone (DIZ) (Fusarium verticillioides [31]): inactive | diameter of the inhibition zone (DIZ) (Staphylococcus aureus [32]): inactive

Cc1cccc2nc(N/N=C/c3ccc(Cl)cc3)sc12
zone of inhibition at 25 µg/mL (Aspergillus niger [1]; read-out: DIZ): 8 mm | diameter of the inhibition zone (DIZ) (Escherichia coli [2]): inactive | zone of inhibition at 25 µg/mL (Staphylococcus aureus [3]; MRSA090, 24 h, read-out: DIZ): 4 mm | zone of inhibition at 50 µg/mL (Bacillus subtilis [4]; read-out: DIZ): 9 mm | zone of inhibition at 50 µg/mL (Fusarium oxysporum [5]; read-out: DIZ): 11 mm | zone of inhibition at 100 µg/mL (Aspergillus niger [6]; read-out: DIZ): 19 mm | zone of inhibition at 50 µg/mL (Fusarium verticillioides [7]; read-out: DIZ): 14 mm | diameter of the inhibition zone (DIZ) (Klebsiella pneumoniae [8]): inactive | diameter of the inhibition zone (DIZ) (Klebsiella pneumoniae [9]): inactive | zone of inhibition at 50 µg/mL (Staphylococcus aureus [10]; MRSA090, 24 h, read-out: DIZ): 9 mm | zone of inhibition at 75 µg/mL (Escherichia coli [11]; read-out: DIZ): 6 mm | zone of inhibition at 75 µg/mL (Bacillus subtilis [12]; read-out: DIZ): 11 mm | zone of inhibition at 75 µg/mL (Aspergillus niger [14]; read-out: DIZ): 16 mm | zone of inhibition at 25 µg/mL (Fusarium verticillioides [15]; read-out: DIZ): 11 mm | zone of inhibition at 50 µg/mL (Staphylococcus aureus [16]; read-out: DIZ): 9 mm | zone of inhibition at 50 µg/mL (Aspergillus niger [17]; read-out: DIZ): 13 mm | zone of inhibition at 75 µg/mL (Fusarium oxysporum [18]; read-out: DIZ): 14 mm | zone of inhibition at 100 µg/mL (Escherichia coli [19]; read-out: DIZ): 10 mm | zone of inhibition at 100 µg/mL (Bacillus subtilis [20]; read-out: DIZ): 14 mm | zone of inhibition at 75 µg/mL (Fusarium verticillioides [21]; read-out: DIZ): 20 mm | diameter of the inhibition zone (DIZ) (Klebsiella pneumoniae [22]): inactive | diameter of the inhibition zone (DIZ) (Klebsiella pneumoniae [23]): inactive | zone of inhibition at 75 µg/mL (Staphylococcus aureus [24]; read-out: DIZ): 11 mm | zone of inhibition at 100 µg/mL (Fusarium oxysporum [25]; read-out: DIZ): 17 mm | zone of inhibition at 100 µg/mL (Staphylococcus aureus [26]; MRSA090, 24 h, read-out: DIZ): 15 mm | zone of inhibition at 25 µg/mL (Staphylococcus aureus [27]; read-out: DIZ): 5 mm | zone of inhibition at 25 µg/mL (Bacillus subtilis [28]; read-out: DIZ): 7 mm | zone of inhibition at 100 µg/mL (Staphylococcus aureus [29]; read-out: DIZ): 13 mm | diameter of the inhibition zone (DIZ) (Escherichia coli [30]): inactive | zone of inhibition at 100 µg/mL (Fusarium verticillioides [31]; read-out: DIZ): 26 mm | zone of inhibition at 75 µg/mL (Staphylococcus aureus [32]; MRSA090, 24 h, read-out: DIZ): 12 mm
